From US10485235B2, “Aryloxypyrimidinyl ethers as herbicides” (FMC Corporation, priority 2015, dated 2019)

How the values were obtained:
Format in all cases: in vivo
[1] = test system: barnyardgrass (Echinochloa crus-galli); assay: Test A postemergence, barnyardgrass
Summary of the method: (§1)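 Plants grown in pots of loam blended with sand were treated either before emergence, via directed soil spray, or after emergence at the one- to two-leaf stage. Following about 10 days in the greenhouse, each treatment was visually compared with untreated controls and rated from 0 (no effect) to 100 (complete control).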

[2] = test system: blackgrass (Alopecurus myosuroides); assay: Test A postemergence, blackgrass
Summary of the method: as §1

[3] = test system: ducksalad (Heteranthera limosa); assay: Test B flooded paddy test, ducksalad; conditions: 250 g ai/ha, Flood; visual rating after 13 to 15 days; scale 0 to 100, 0 is no effect, 100 is complete control
Summary of the method: (§2)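 Visual injury scored 0 (no effect) to 100 (complete control) relative to controls 13-15 days after treatment in greenhouse. Treatment: test compound added into paddy water of pots flooded 3 cm over soil, holding 2-leaf-stage plants; water level kept constant.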

[4] = test system: kochia (Kochia scoparia); assay: Test A postemergence, kochia
Summary of the method: as §1

[5] = test system: galium (catchweed bedstraw, Galium aparine); assay: Test A postemergence, galium
Summary of the method: as §1

[6] = test system: wheat (Triticum aestivum); assay: Test A postemergence, wheat
Summary of the method: as §1

[7] = test system: foxtail, giant (giant foxtail, Setaria faberii); assay: Test A postemergence, giant foxtail
Summary of the method: as §1

[8] = test system: ragweed (common ragweed, Ambrosia elatior); assay: Test A preemergence, ragweed; conditions: Preemergence, 0 to 100 scale (0 no effect, 100 complete control)
Summary of the method: as §1

[9] = test system: corn (Zea mays); assay: Test A postemergence, corn
Summary of the method: as §1

[10] = test system: ryegrass, Italian (Italian ryegrass, Lolium multiflorum); assay: Test A postemergence, Italian ryegrass
Summary of the method: as §1

[11] = test system: ryegrass, Italian (Italian ryegrass, Lolium multiflorum); assay: Test A preemergence, Italian ryegrass; conditions: Preemergence, 0 to 100 scale (0 no effect, 100 complete control)
Summary of the method: as §1

[12] = test system: barnyardgrass (Echinochloa crus-galli); assay: Test A preemergence, barnyardgrass; conditions: Preemergence, 0 to 100 scale (0 no effect, 100 complete control)
Summary of the method: as §1

[13] = test system: ragweed (common ragweed, Ambrosia elatior); assay: Test A postemergence, ragweed
Summary of the method: as §1

[14] = test system: barnyardgrass (Echinochloa crus-galli); assay: Test B flooded paddy test, barnyardgrass; conditions: 250 g ai/ha, Flood; visual rating after 13 to 15 days; scale 0 to 100, 0 is no effect, 100 is complete control
Summary of the method: as §2

[15] = test system: pigweed (Amaranthus retroflexus); assay: Test A postemergence, pigweed
Summary of the method: as §1

[16] = test system: pigweed (Amaranthus retroflexus); assay: Test A preemergence, pigweed; conditions: Preemergence, 0 to 100 scale (0 no effect, 100 complete control)
Summary of the method: as §1

[17] = test system: sedge, umbrella (small-flower umbrella sedge, Cyperus difformis); assay: Test B flooded paddy test, umbrella sedge; conditions: 250 g ai/ha, Flood; visual rating after 13 to 15 days; scale 0 to 100, 0 is no effect, 100 is complete control
Summary of the method: as §2

[18] = test system: foxtail, giant (giant foxtail, Setaria faberii); assay: Test A preemergence, giant foxtail; conditions: Preemergence, 0 to 100 scale (0 no effect, 100 complete control)
Summary of the method: as §1

[19] = test system: rice (Oryza sativa); assay: Test B flooded paddy test, rice; conditions: 250 g ai/ha, Flood; visual rating after 13 to 15 days; scale 0 to 100, 0 is no effect, 100 is complete control
Summary of the method: as §2

[20] = test system: kochia (Kochia scoparia); assay: Test A preemergence, kochia; conditions: Preemergence, 0 to 100 scale (0 no effect, 100 complete control)
Summary of the method: as §1

[21] = 31 g ai/ha, postemergence, 0 to 100 scale, 0 is no effect, 100 is complete control, approximately 10 days
[22] = 125 g ai/ha, postemergence, 0 to 100 scale, 0 is no effect, 100 is complete control, approximately 10 days
[23] = Postemergence, 31 g ai/ha, 0 to 100 scale (0 no effect, 100 complete control)

Row | Compound | Plant response rating, Barnyardgrass [1, 22] | Plant response rating, Blackgrass [2, 22] | Plant response rating, Ducksalad [3] | Plant response rating, Kochia [4, 22] | Plant response rating, Galium [5, 22] | Plant response rating, Wheat [6, 22] | Plant response rating, Foxtail, Giant [7, 22] | Plant response rating, Ragweed ([8]; 31 g ai/ha) | Plant response rating, Ragweed ([8]; 125 g ai/ha) | Plant response rating, Corn [9, 22] | Plant response rating, Ryegrass, Italian [10, 22] | Plant response rating, Ryegrass, Italian ([11]; 31 g ai/ha) | Plant response rating, Ryegrass, Italian ([11]; 125 g ai/ha) | Plant response rating, Barnyardgrass ([12]; 31 g ai/ha) | Plant response rating, Barnyardgrass ([12]; 125 g ai/ha) | Plant response rating, Ragweed [13, 22] | Plant response rating, Barnyardgrass [14] | Plant response rating, Pigweed [15, 22] | Plant response rating, Pigweed ([16]; 31 g ai/ha) | Plant response rating, Pigweed ([16]; 125 g ai/ha) | other results
1 | Cc1cccc(Oc2ncc(Cl)cn2)c1OCCC(F)(F)F [Compound 64] | 10 | 10 | 85 | 20 | 0 | 0 | 10 | 0 | 0 | 10 | 0 | 0 | 0 | 10 | 60 | 0 | 0 | 30 | 0 | 100 | Plant response rating, Barnyardgrass [1, 21]: 0; Plant response rating, Blackgrass [2, 21]: 0; Plant response rating, Kochia [4, 21]: 10; Plant response rating, Galium [5, 21]: 0; Plant response rating, Wheat [6, 21]: 0; Plant response rating, Foxtail, Giant [7, 21]: 0; Plant response rating, Corn [9, 21]: 0; Plant response rating, Ryegrass, Italian [10, 21]: 0; Plant response rating, Ragweed [13, 21]: 0; Plant response rating, Pigweed [15, 21]: 20; Plant response rating, Sedge, Umbrella [17]: 90; Plant response rating, Foxtail, Giant ([18]; 31 g ai/ha): 0; Plant response rating, Foxtail, Giant ([18]; 125 g ai/ha): 20; Plant response rating, Rice [19]: 20; Plant response rating, Kochia ([20]; 31 g ai/ha): 0; Plant response rating, Kochia ([20]; 125 g ai/ha): 0
2 | FCCCOc1c(I)cccc1Oc1ncc(Cl)cn1 [Compound 66] | 50 | 30 | 100 | 100 | 90 | 0 | 30 | 0 | 0 | 30 | 20 | 0 | 10 | 20 | 70 | 0 | 0 | 100 | 70 | 100 | Plant response rating, Barnyardgrass [1, 21]: 0; Plant response rating, Blackgrass [2, 21]: 10; Plant response rating, Kochia [4, 21]: 90; Plant response rating, Galium [5, 21]: 40; Plant response rating, Wheat [6, 21]: 0; Plant response rating, Foxtail, Giant [7, 21]: 10; Plant response rating, Corn [9, 21]: 0; Plant response rating, Ryegrass, Italian [10, 21]: 0; Plant response rating, Ragweed [13, 21]: 0; Plant response rating, Pigweed [15, 21]: 90; Plant response rating, Sedge, Umbrella [17]: 100; Plant response rating, Foxtail, Giant ([18]; 31 g ai/ha): 50; Plant response rating, Foxtail, Giant ([18]; 125 g ai/ha): 100; Plant response rating, Rice [19]: 20; Plant response rating, Kochia ([20]; 31 g ai/ha): 0; Plant response rating, Kochia ([20]; 125 g ai/ha): 60
3 | N#CCCCOc1c(I)cccc1Oc1ncc(Cl)cn1 [Compound 67] | 30 | 30 | 100 | 100 | 50 | 0 | 30 | 0 | 0 | 20 | 10 | 0 | 20 | 0 | 30 | 10 | 0 | 100 | 50 | 100 | Plant response rating, Barnyardgrass [1, 23]: 0; Plant response rating, Blackgrass [2, 23]: 0; Plant response rating, Kochia [4, 23]: 60; Plant response rating, Galium [5, 23]: 30; Plant response rating, Wheat [6, 23]: 0; Plant response rating, Foxtail, Giant [7, 23]: 10; Plant response rating, Corn [9, 23]: 10; Plant response rating, Ryegrass, Italian [10, 23]: 0; Plant response rating, Ragweed [13, 23]: 0; Plant response rating, Pigweed [15, 23]: 60; Plant response rating, Sedge, Umbrella [17]: 95; Plant response rating, Foxtail, Giant ([18]; 31 g ai/ha): 60; Plant response rating, Foxtail, Giant ([18]; 125 g ai/ha): 100; Plant response rating, Rice [19]: 10; Plant response rating, Kochia ([20]; 31 g ai/ha): 20; Plant response rating, Kochia ([20]; 125 g ai/ha): 80
